From patent US12458638B2, “Method of stimulating neutrophil survival and reducing neutropenia” (BEYONDSPRING PHARMACEUTICALS, INC., priority 2017, dated 2025)
Read-outs that look alike come from different tables or passages of the source. Blank lines part the entries; values can stand above or below the molecule they belong to.

Columns and labels:
[1] = system: NSCLC patients with a measurable lesion; conditions: human, in vivo
[2] = Safety / product profile of plinabulin vs G-CSF in patients (bone pain, hospitalization, hypertension, laboratory parameters); format: in vivo, human
[3] = system: docetaxel-induced neutropenia; assay: Grade 4 neutropenia in patients on docetaxel with or without plinabulin; format: in vivo, human; conditions: for proportion of patients with Grade 4 neutropenia: Cycle 1, Day 8, ANC<0.5×10^9/L, docetaxel alone vs plinabulin added to docetaxel, p<0.0003
[4] = system: neutropenia caused by chemotherapies; assay: Animal model studies of chemotherapy-caused neutropenia; format: in vivo; conditions: animal models; docetaxel, cisplatin, adriamycin, cyclosphosphamide, topotecan, gemcitabine
Text: Clinical complications of neutropenia (febrile neutropenia, infections, sepsis, and mortality) occur with Grade 4 Neutropenia, as compared to with Grade 2 or 3 Neutropenia. For regulatory approval, the FDA and Health Authorities focus on Grade 4 Neutropenia data.

[5] = system: docetaxel-induced neutropenia; assay: Randomized double blind study, plinabulin vs pegfilgrastim in solid tumor patients receiving docetaxel (Example 4); format: in vivo, human; conditions: for neutrophil count through time (FIG. 1): after docetaxel 75 mg/m^2
Protocol: A randomized, double blind study to evaluate duration of severe neutropenia with plinabulin versus pegfilgrastim in patients with solid tumors receiving docetaxel myelosuppressive chemotherapy was performed. Patients were randomly assigned to the following arms (with the respective sample sizes): Arm 1: Docetaxel (75 mg/m^2)+Pegfilgrastim (6 mg) (n=14); Arm 2: Docetaxel (75 mg/m^2)+Plinabulin (20 mg/m^2) (n=14); Arm 3: Docetaxel (75 mg/m^2)+Plinabulin (10 mg/m^2) (n=14); and Arm 4: Docetaxel (75 mg/m^2)+Plinabulin (5 mg/m^2) (n=13).

CYP3A4 = CYP3A4 (Homo sapiens, UniProt P08684); conditions: with the use of strong CYP3A4 inhibitors; cited from earlier work
[6] = system: chemotherapy-induced febrile/severe neutropenia; assay: Reported FN frequency and DSN with docetaxel or TAC chemotherapy, with or without G-CSF; format: in vivo, human; conditions: docetaxel monotherapy 75 mg/m^2 without G-CSF
Protocol: The frequency of FN with docetaxel monotherapy (100 mg/m^2)+G-CSF is reported to be 1% in Cycle 1. […] 2002; 20:727-731.
The FN percentage is about 12.7% with 75 mg/m^2 docetaxel. Based on this range of FN and the relationship established between FN and DSN, the assumption is that, with docetaxel monotherapy at a dose of 75 mg/m^2 without G-CSF, the median DSN is estimated to be 4-5 days.
The margin can be selected based on the data that Taxotere/Adriamycin/cyclophosphamide (TAC) chemotherapy can induce a median DSN of 7 days in breast cancer patients receiving no G-CSF treatment, while G-CSF treatment reduces the mean DSN for this chemotherapy to 1.4 days (95% CI: 1.07-1.69) as shown in pegfilgrastim Study. Based on this a non-inferiority limit of 1 day is derived.

[7] = system: docetaxel-induced severe neutropenia; assay: Calculated DSN from Day 8 neutrophil nadir values (simulation, Deming regression); format: in vivo, human; conditions: from observed Day 8 neutrophil (nadir) values, Cycle 1
Text: DSN is obtained using the following methods (described below) for generation of ANC data and the observed neutrophil values on Day 8/Cycle 1 in the Phase 2 study. […] The study may assume that the shape of the time/neutrophil recovery curve in plinabulin-treated patients is indistinguishable from the time/neutrophil recovery curve for filgrastim and its biosimilars.
Mean values and standard deviations of ANC during the 21-day follow-up period can be obtained from the reference. […] The simulation would then also generate the projected number of days with severe neutropenia, (i.e., the DSN).

[8] = system: chemotherapy-induced febrile/severe neutropenia; conditions: cited from earlier work
[9] = most common adverse reactions; cited from earlier work
[10] = G-CSF, Table 1; cited from earlier work
[11] = Plinabulin 5 mg/m2 + docetaxel 75 mg/m^2
[12] = Plinabulin 10 mg/m2 + docetaxel 75 mg/m^2
[13] = Plinabulin 20 mg/m2 + docetaxel 75 mg/m^2
[14] = Neulasta 6 mg + docetaxel 75 mg/m^2

Chain of CYP3A4 (P08684 whole entry): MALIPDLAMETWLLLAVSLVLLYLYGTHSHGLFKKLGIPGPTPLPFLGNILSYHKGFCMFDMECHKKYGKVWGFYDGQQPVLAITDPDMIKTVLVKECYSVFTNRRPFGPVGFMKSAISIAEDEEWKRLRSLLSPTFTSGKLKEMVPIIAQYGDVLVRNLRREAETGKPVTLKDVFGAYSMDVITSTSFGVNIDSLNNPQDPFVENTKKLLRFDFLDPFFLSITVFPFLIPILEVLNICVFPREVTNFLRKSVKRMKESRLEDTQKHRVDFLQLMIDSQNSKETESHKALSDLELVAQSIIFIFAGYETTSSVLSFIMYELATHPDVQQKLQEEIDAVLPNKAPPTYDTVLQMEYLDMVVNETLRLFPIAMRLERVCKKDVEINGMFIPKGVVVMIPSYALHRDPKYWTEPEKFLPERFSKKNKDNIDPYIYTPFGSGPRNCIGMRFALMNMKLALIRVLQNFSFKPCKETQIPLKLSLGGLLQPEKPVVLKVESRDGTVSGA

Molecule: CC(C)(C)c1[nH]cnc1/C=c1\[nH]c(=O)/c(=C/c2ccccc2)[nH]c1=O [Plinabulin, (3Z,6Z)-3-Benzylidene-6-{[5-(2-methyl-2-propanyl)-1H-imidazol-4-yl]methylene}-2,5-piperazinedione]
Immune-Related AEs (IR-AEs) [1]: without increasing Immune-Related AEs
Grade 3 transient hypertension, patients ([2]; 20 mg/m^2 plinabulin): 5%
Grade 3 transient hypertension, patients ([2]; 30 mg/m^2 plinabulin): 20%
Bone Pain (% of patients) ([2]; Plinabulin, Table 1): <4%
Hospitalization (% of patients) ([2]; Plinabulin, Table 1): 6%
Bone pain, patients reporting ([2]; patients receiving plinabulin): 4%
changes in hematology or chemistry laboratory parameters ([2]; plinabulin monotherapy, solid tumor patients, no chemotherapy): did not experience any clinically significant deleterious changes
proportion of patients with Grade 4 neutropenia [3]: 4.6%
clinical sequelae associated with docetaxel-induced neutropenia (sepsis, infections, hospitalizations, docetaxel dose reductions, G-CSF use) ([3]; human, in vivo): reduced
prevention of neutropenia caused by chemotherapies [4]: prevent neutropenia
DSN [5, 11]: 0.46 days
Grade 4 Incidence (%) [5, 11]: 23%
DSN [5, 12]: 0.43 days
Grade 4 Incidence (%) [5, 12]: 21%
DSN [5, 13]: 0.38 days
Grade 4 Incidence (%) [5, 13]: 15%
neutrophil count through time (FIG. 1) [5]: started to rise again on day 10
treatment of neutropenia induced by chemotherapeutic agent ([5]; human, in vivo): effective in treating neutropenia

estimated median DSN [6]: 4 to 5 days
Molecule: CC(=O)O[C@@]12CO[C@@H]1C[C@H](O)[C@@]1(C)C(=O)[C@H](O)C3=C(C)[C@@H](OC(=O)[C@H](O)[C@@H](NC(=O)OC(C)(C)C)c4ccccc4)C[C@@](O)([C@@H](OC(=O)c4ccccc4)[C@H]21)C3(C)C [docetaxel]
increase of docetaxel exposure (CYP3A4): approximately 2 fold
calculated mean DSN [7]: 1.076 days
FN percentage ([8]; 75 mg/m^2 docetaxel): about 12.7%
frequency of FN ([8]; Cycle 1, docetaxel 100 mg/m^2 without G-CSF): 11%
frequency of FN ([8]; over all cycles, docetaxel 60 mg/m^2 without G-CSF): 19.8%
frequency of FN ([8]; over all cycles, docetaxel 100 mg/m^2 without G-CSF): 17%
proportion of patients with Grade 4 neutropenia [3]: 33.3%

B1: Neulasta: pegfilgrastim (Neulasta®), a granulocyte colony-stimulating factor (G-CSF) compound (protein, chains of the INN, looked up)
chain: TPLGPASSLPQSFLLKCLEQVRKIQGDGAALQEKLCATYKLCHPEELVLLGHSLGIPWAPLSSCPSQALQLAGCLSQLHSGLFLYQGLLQALEGISPELGPTLDTLQLDVADFATTIWQQMEELGMAPALQPTQGAMPAFASAFQRRAGGVLVASHLQSFLEVSYRVLRHLAQP
bone pain, patients [9]: 31%
pain in an extremity, patients [9]: 9%
DSN [5, 14]: 0.14 days
Grade 4 Incidence (%) [5, 14]: 14%
neutrophil count through time (FIG. 1) [5]: had an initial increase and then began to drop after 10 days

B2: G-CSF: Granulocyte-colony stimulating factor; G-CSF compounds include filgrastim and pegfilgrastim (protein, UniProt P09919 31-207, looked up)
Granulocyte …: TPLGPASSLPQSFLLKCLEQVRKIQGDGAALQEKLVSECATYKLCHPEELVLLGHSLGIPWAPLSSCPSQALQLAGCLSQLHSGLFLYQGLLQALEGISPELGPTLDTLQLDVADFATTIWQQMEELGMAPALQPTQGAMPAFASAFQRRAGGVLVASHLQSFLEVSYRVLRHLAQP
Bone Pain (% of patients) [10]: >20%
Hospitalization (% of patients) [10]: 20%
mean DSN ([8]; G-CSF treatment with TAC chemotherapy, 95% CI: 1.07-1.69): 1.4 days
